Each structure is given as a SMILES string. Like-named read-outs stand apart in the source and are kept apart here.

This is an account of results in publication PMC7926352, “Synthesis, Characterization and In Vitro Evaluation of Novel 5-Ene-thiazolo[3,2-b][1,2,4]triazole-6(5H)-ones as Possible Anticancer Agents” (Molecules, 2021).

Data set [1] relates to phospholipase C-γ2 (PLC-γ2). Details: method as in PMID 19303309. The note with it: at 15 µM; cited from earlier work.
The subject of data set [2] is phospholipase C-γ2 (PLC-γ2). Further details: method as in PMID 19303309. The following applies: at 15 µM; cited from earlier work. The source holds these as a separate data set.
In data set [3] the test system is panel of approximately sixty human tumor cell lines. The data set can be described thus: NCI-60 human tumor cell lines screen (SRB), full panel. The format is cell-based. The note with it: 10 μM; for activity at 10 µM: Homo sapiens, 60 cell lines assay in one dose, 48 h; for Positive Cytostatic Effect / Positive Cytotoxic Effect: one dose; for Positive Cytostatic Effect: ratio of number of cell lines with percent growth from 0 to 50 to total number of cell lines; for Positive Cytotoxic Effect: ratio of number of cell lines with percent growth of <0 to total number of cell lines. The procedure:
Compounds 2a, 2c–f, 2h–l, 3, 5e, 5f were selected for antitumor activity which was performed according to the standard protocols of National Cancer Institute (NCI, Bethesda, MD, USA) Developmental Therapeutic Program (DTP). At the prescreening stage, the compounds were evaluated for antitumor activity at the concentration of 10 µM against a panel of approximately sixty cancer cell lines representing different types of cancer including leukemia, melanoma, lung, colon, CNS, ovarian, renal, prostate and breast cancers.
Among them, three compounds (2d, 2h, 2i) presented excellent cytotoxic and four derivatives (2d, 2h, 2i, 2k) cytostatic properties in one or more cell lines when applied at a concentration of 10 µM. […] The outcomes were calculated and presented in the form of three response parameters (GI50, TGI and LC50) for each cell line via growth percentage inhibition curves. […]
The primary anticancer assay was performed on a panel of approximately sixty human tumor cell lines derived from nine neoplastic diseases (leukemia, melanoma, lung, colon, CNS, ovarian, renal, prostate, and breast cancers), in accordance with the protocol of the National Cancer Institute Drug Evaluation Branch (Bethesda, MD, USA). Tested compounds were added to the culture at a single concentration (10^−5 M) and the cultures were incubated for 48 h. End-point determinations were made with a protein-binding dye, sulforhodamine B (SRB). Results for each tested compound were reported as the percentage of the growth of the treated cells when compared to the untreated control cells. The percentage of the growth was evaluated spectrophotometrically versus controls not treated with test agents. […] Using absorbance measurements [time zero (Tz), control growth in the absence of drug (C), and test growth in the presence of the drug (Ti)], the percentage growth was calculated for each drug concentration. Percentage growth inhibition was calculated as:[(Ti − Tz)/[…]] × 100(1) for concentrations for which Ti ≥ Tz, [(Ti − Tz)/Tz] × 100 for concentrations for which Ti < Tz. Dose-response parameters (GI50, TGI) were calculated for each compound. Growth inhibition of 50% (GI50) was calculated from [(Ti − Tz)/(C − Tz)] × 100 = 50, which is the drug concentration resulting in a 50% lower net protein increase in the treated cells (measured by SRB staining) as compared to the net protein increase seen in the control cells. The drug concentration resulting in total growth inhibition (TGI) was calculated from Ti = Tz. Values were calculated for each of these parameters if the level of activity was reached; however, if the effect was not reached or was excessive, the value for that parameter was expressed as more or less than the maximum or minimum concentration tested. The lowest values were obtained with the most sensitive cell lines. Compounds having GI50 values ≤ 100 μM were declared to be active. The selectivity index (SI) calculated by dividing the full panel MG_MID (full-panel mean-graph midpoint) (μM) of the compounds 2h and 2i by their individual subpanel MG_MID of a cell line (μM) was considered as a measure of compounds’ selectivity. Ratios between 3 and 6 mean moderate selectivity, ratios greater than 6 indicate high selectivity toward the corresponding cell line, while compounds not meeting either of these criteria are rated nonselective.

Take `O=c1/c(=C/c2ccccc2[N+](=O)[O-])sc2nc(-c3ccc(F)cc3)nn12` [CCT-196700]: the “PLC-γ2 inhibition, calcium release cell-based assay” value in data set [1] is recorded as “satisfactory activity parameters”. The “PLC-γ2 inhibition, biochemical assay” value in data set [2] was “satisfactory activity parameters”.
Regarding `O=c1/c(=C/c2ccccc2F)sc2ncnn12` [Compound 2a, (Z)-5-(2-Fluorobenzylidene)thiazolo[3,2-b][1,2,4]triazol-6(5H)-one], in data set [3] (read-out: Mean Growth, %), the activity at 10 µM amounted to 90%. Further, the activity at 10 µM in data set [3] (read-out: Range of Growth, %) lay within 52.8 to 123%. For the same compound, in data set [3], the “Positive Cytostatic Effect” value was 0/59 and the “Positive Cytotoxic Effect” value is reported as 0/59.
Turning to `COc1ccccc1/C=c1\sc2ncnn2c1=O` [Compound 2b, (Z)-5-(2-Methoxybenzylidene)thiazolo[3,2-b][1,2,4]triazol-6(5H)-one], the melting point was 196 to 198 °C.
In the case of `C=CCOc1ccccc1/C=c1\sc2ncnn2c1=O` [Compound 2c, (Z)-5-(2-(Allyloxy)benzylidene)thiazolo[3,2-b][1,2,4]triazol-6(5H)-one], the activity at 10 µM in data set [3] (read-out: Mean Growth, %) was 103%; in data set [3] (read-out: Range of Growth, %), 77.1 to 146%. Besides, in data set [3], the “Positive Cytostatic Effect” value is recorded as 0/59. Also, the “Positive Cytotoxic Effect” value in data set [3] is given as 0/59.
Turning to `CC(=O)Oc1ccc(/C=c2\sc3ncnn3c2=O)cc1` [Compound 2d, (Z)-4-((6-Oxothiazolo[3,2-b][1,2,4]triazol-5(6H)-ylidene)methyl)phenyl acetate], the activity at 10 µM in data set [3] (read-out: Mean Growth, %) turned out to be 99.7%. For the same compound, the activity at 10 µM in data set [3] (read-out: Range of Growth, %) was -73.9 to 148%. Moreover, in data set [3], the “Positive Cytostatic Effect” value is 2/58 and the “Positive Cytotoxic Effect” value was 3/58.
As for `CCN(CC)c1ccc(/C=c2\sc3ncnn3c2=O)cc1` [Compound 2e, (Z)-5-(4-(Diethylamino)benzylidene)thiazolo[3,2-b][1,2,4]triazol-6(5H)-one], the activity at 10 µM in data set [3] (read-out: Mean Growth, %) is 102%; in data set [3] (read-out: Range of Growth, %) it was 61.9 to 134%. In addition, the “Positive Cytostatic Effect” value in data set [3] was 0/58. The “Positive Cytotoxic Effect” value in data set [3] is listed as 0/58.
For `COc1ccc(/C=c2\sc3ncnn3c2=O)cc1OC` [Compound 2f, (Z)-5-(3,4-Dimethoxybenzylidene)thiazolo[3,2-b][1,2,4]triazol-6(5H)-one], in data set [3] (read-out: Mean Growth, %), the activity at 10 µM turned out to be 108%. Moreover, in data set [3] (read-out: Range of Growth, %), the activity at 10 µM lay within 86.7 to 262%. Moreover, in data set [3], the “Positive Cytostatic Effect” value is given as 0/57 and the “Positive Cytotoxic Effect” value is given as 0/57.
In turn, `Cc1cccc(NC(=O)COc2ccc(Cl)cc2/C=c2\sc3ncnn3c2=O)c1` [Compound 2g, (Z)-2-(4-Chloro-2-((6-oxothiazolo[3,2-b][1,2,4]triazol-5(6H)-ylidene)methyl)phenoxy)-N-(m-tolyl)acetamide] gave a melting point of 260 to 262 °C.
For `O=c1/c(=C/c2ccco2)sc2ncnn12` [Compound 2j, (Z)-5-(Furan-2-ylmethylene)thiazolo[3,2-b][1,2,4]triazol-6(5H)-one], the activity at 10 µM in data set [3] (read-out: Mean Growth, %) stood at 106%. Also, the activity at 10 µM in data set [3] (read-out: Range of Growth, %) was 82.4 to 136%. Further, in data set [3], the “Positive Cytostatic Effect” value is recorded as 0/56 and the “Positive Cytotoxic Effect” value is given as 0/56.
With `O=c1c(=Cc2cccs2)sc2ncnn12` [Compound 2k, (Z)-5-(Thiophen-2-y-lmethylene)thiazolo[3,2-b][1,2,4]triazol-6(5H)-one], the activity at 10 µM in data set [3] (read-out: Mean Growth, %) stood at 111%. In addition, in data set [3] (read-out: Range of Growth, %), the activity at 10 µM was in the range of 25.2 to 180%. For the same compound, in data set [3], the “Positive Cytostatic Effect” value is reported as 1/56 and the “Positive Cytotoxic Effect” value is recorded as 0/56.
The corresponding values for `CC(=O)n1cc(/C=c2\sc3ncnn3c2=O)c2ccccc21` [Compound 2l, (Z)-5-((1-Acetyl-1H-indol-3-yl)methylene)thiazolo[3,2-b][1,2,4]triazol-6(5H)-one] are 105%, 66.9 to 141%, 0/59 and 0/59.
The corresponding values for `O=C(O)CSc1nnc[nH]1` [Compound 3, 2-((1H-1,2,4-Triazol-3-yl)thio)acetic Acid] are 97.2%, 74.8 to 122%, 0/59 and 0/59.
The corresponding values for `O=c1/c(=C/Nc2cccc(O)c2)sc2ncnn12` [Compound 5e, (E/Z)-5-(((3-Hydroxyphenyl)amino)methylene)thiazolo[3,2-b][1,2,4]triazol-6(5H)-one] are 101%, 80.3 to 138%, 0/59 and 0/59.
As for `O=c1/c(=C/Nc2ccc(Cl)cc2)sc2ncnn12` [Compound 5f, (E/Z)-5-(((4-Chlorophenyl)amino)methylene)thiazolo[3,2-b][1,2,4]triazol-6(5H)-one], the activity at 10 µM in data set [3] (read-out: Mean Growth, %) was 93.6%; in data set [3] (read-out: Range of Growth, %), 54.4 to 112%. In data set [3], the “Positive Cytostatic Effect” value is reported as 0/59. In addition, in data set [3], the “Positive Cytotoxic Effect” value was 0/59.
As for `O=c1/c(=C/N2CCc3ccccc32)sc2ncnn12` [Compound 6a, (Z)-5-(Indolin-1-ylmethylene)thiazolo[3,2-b][1,2,4]triazol-6(5H)-one], the melting point is above 250 °C.
On the same count and under the same terms, in the case of `O=c1/c(=C/N2CCCCC2)sc2ncnn12` [Compound 6b, (Z)-5-(Piperidin-1-ylmethylene)thiazolo[3,2-b][1,2,4]triazol-6(5H)-one] it was 190 to 192 °C.
`O=c1/c(=C/N2CCN(CCO)CC2)sc2ncnn12` [Compound 6c, (Z)-5-((4-(2-Hydroxyethyl)piperazin-1-yl)methylene)thiazolo[3,2-b][1,2,4]triazol-6(5H)-one] gave a melting point of 189 to 192 °C.
Still for that read-out and setting: next, `CCOC(=O)N1CCN(/C=c2\sc3ncnn3c2=O)CC1` [Compound 6d, Ethyl(Z)-4-((6-oxothiazolo[3,2-b][1,2,4]triazol-5(6H)-ylidene)methyl)piperazine-1-carboxylate]: 204 to 206 °C.

By melting point is commonly meant the temperature of the solid-liquid transition.
